Measurements as given in patent publication US5258383A, “DC-89 derivatives” (priority 1991, dated 1993).

What was measured:
ddY-strain male mice = assay: Acute Toxicity Test; assay type: in vivo; conditions: intravenous; mortality observed for 14 days
Procedure: A test compound was intravenously administered to ddY-strain male mice each weighing 20±1 g. MLD (the minimum lethal dose) was determined by observing the mortality for 14 days after the administration.

HeLaS3 cells = assay: Growth Inhibitory Effect against HeLaS3 Cells; assay type: cell-based; conditions: Homo sapiens, HeLa S3; 72 hours, Neutral Red staining
Procedure: HeLaS3 cells were suspended in a medium comprising MEM medium, 10% fetal calf serum and 2 mM glutamine (hereinafter referred to as medium A) to a concentration of 3×10^4 cells/ml. The cell suspension thus prepared was put into wells of a 96-well microtiter plate in an amount of 0.1 ml per well. After incubation at 37° C. for 20 hours in a CO2 incubator, Compound (I) appropriately diluted with medium A was added to each well in an amount of 0.05 ml.
The cells were further cultured at 37° C. for 72 hours in the CO2 -incubator and the culture supernatant was removed. After the residue was washed once with phosphate buffer saline (PBS), a medium comprising medium A and 0.02% Neutral Red was added in an amount of 0.1 ml per well. Then, the cells were cultured at 37° C. for one hour in the CO2 -incubator, whereby the cells were stained. After removal of the culture supernatant, the residue was washed once with physiological saline. The pigment was extracted with 0.001N hydrochloric acid/30% ethanol and the absorbance of the extract was measured at 550 nm using a microplate reader. The concentration of the test compound at which the growth of the cells is inhibited by 50% (IC50) was calculated by comparing the absorbance of untreated cells with those of the cells treated with the test compound at known concentrations.

Sarcoma 180 tumor = assay: Therapeutic Effect against Sarcoma 180 Tumor; assay type: in vivo, male ddY-strain mice; conditions: intravenous, single administration one day after implantation, determined seven days after implantation
Procedure: Five male ddY-strain mice each weighing 18 to 20 g were used for each group as test animals, and 5×10^5 Sarcoma 180 tumor cells were implanted subcutaneously into the animals at the axilla. One day after the implantation, 0.2 ml of physiological saline containing Compound (I) at the concentration indicated in Table 2 was intravenously administered to each mouse. T/C [T: average tumor volume (mm^3) of the group treated with the test compound, C: average tumor volume (mm^3) of the control group which received an intravenous administration of 0.2 ml of physiological saline]was determined seven days after the implant

various bacteria = conditions: against various bacteria / a variety of bacteria; cited from earlier work
melanoma B-16 = conditions: against melanoma B-16; cited from earlier work

| SMILES | Acute Toxicity (MLD), minimum lethal dose (ddY-strain male mice) [mg/kg] | antibacterial activity (various bacteria) | antitumor activity (melanoma B-16) | further results |
| --- | --- | --- | --- | --- |
| COC(=O)c1c(C)[nH]c2c1C13CC1CN(C(=O)/C=C/c1ccc(OC)cc1)C3=CC2=O (stereo not shown) [Compound 2] | 2.0 |  |  | IC50 (HeLaS3 cells): 0.18 nM |
| COC(=O)c1c(C)[nH]c2c(OC(=O)N(C)C)cc3c(c12)C(CBr)CN3C(=O)/C=C/c1ccc(OC)cc1 (stereo not shown) [Compound 3] | > 8.0 |  |  | T/C (average tumor volume treated / control) (Sarcoma 180 tumor; 8.0 mg/kg): 0.027; IC50 (HeLaS3 cells): 11 nM |
| COC(=O)c1c(C)[nH]c2c(OC(=O)N3CCCCC3)cc3c(c12)C(CBr)CN3C(=O)/C=C/c1ccc(OC)cc1 (stereo not shown) [Compound 4] | > 8.0 |  |  | IC50 (HeLaS3 cells): < 0.24 nM |
| COC(=O)c1c(C)[nH]c2c(OC(=O)N3CCCC3)cc3c(c12)C(CBr)CN3C(=O)/C=C/c1ccc(OC)cc1 (stereo not shown) [Compound 5] | > 8.0 |  |  |  |
| COC(=O)c1c(C)[nH]c2c(OC(=O)N3CCN(C)CC3)cc3c(c12)C(CBr)CN3C(=O)/C=C/c1ccc(OC)cc1 (stereo not shown) [Compound 7] | 8.0 |  |  | T/C (average tumor volume treated / control) (Sarcoma 180 tumor; 4.0 mg/kg): 0.20 |
| COC(=O)c1c(C)[nH]c2c(OC(=O)N3CCC(N4CCCCC4)CC3)cc3c(c12)C(CBr)CN3C(=O)/C=C/c1ccc(OC)cc1 (stereo not shown) [Compound 9] | 4.0 |  |  | T/C (average tumor volume treated / control) (Sarcoma 180 tumor; 4.0 mg/kg): 0.17 |
| COC(=O)c1c(C)[nH]c2c(OC(=O)N3CCN(CC(=O)NC(C)C)CC3)cc3c(c12)C(CBr)CN3C(=O)/C=C/c1ccc(OC)cc1 (stereo not shown) [Compound 11] | > 8.0 |  |  | T/C (average tumor volume treated / control) (Sarcoma 180 tumor; 8.0 mg/kg): 0.12 |
| COC(=O)c1c(C)[nH]c2c(OC(=O)Nc3ccccc3)cc3c(c12)C(CBr)CN3C(=O)/C=C/c1ccc(OC)cc1 (stereo not shown) [Compound 12] | 2.0 |  |  | T/C (average tumor volume treated / control) (Sarcoma 180 tumor; 2.0 mg/kg): 0.25 |
| COC(=O)c1cc2c([nH]1)C(=O)C=C1N(C(=O)c3cc4cc(OC)c(OC)c(OC)c4[nH]3)CC3CC123 (stereo not shown) [DC113] |  | show an antibacterial activity against a variety of bacteria | exhibit an anti-tumor activity against melanoma B-16 |  |
| COC(=O)C1(C)NC2=C(C1=O)C13CC1CN(C(=O)c1cc4cc(OC)c(OC)c(OC)c4[nH]1)C3=CC2=O (stereo not shown) [DC-88A] |  | show an antibacterial activity against a variety of bacteria | exhibit an anti-tumor activity against melanoma B-16 |  |
| COC(=O)C1(C)Nc2c(O)cc3c(c2C1=O)C(CCl)CN3C(=O)c1cc2cc(OC)c(OC)c(OC)c2[nH]1 (stereo not shown) [DC-89A2] |  | exhibit an antibacterial activity against various bacteria | show an antitumor activity against melanoma B-16 |  |
| COC(=O)C1(C)Nc2c(O)cc3c(c2C1=O)CC(Cl)CN3C(=O)c1cc2cc(OC)c(OC)c(OC)c2[nH]1 (stereo not shown) [DC-89Al] |  | exhibit an antibacterial activity against various bacteria | show an antitumor activity against melanoma B-16 |  |
| COC(=O)C1(C)Nc2c(O)cc3c(c2C1=O)CC(Br)CN3C(=O)c1cc2cc(OC)c(OC)c(OC)c2[nH]1 (stereo not shown) [DC-89B1] |  | exhibit an antibacterial activity against various bacteria | show an antitumor activity against melanoma B-16 |  |
| COC(=O)C1(C)Nc2c(O)cc3c(c2C1=O)C(CBr)CN3C(=O)c1cc2cc(OC)c(OC)c(OC)c2[nH]1 (stereo not shown) [DC-89B2] |  | exhibit an antibacterial activity against various bacteria | show an antitumor activity against melanoma B-16 |  |
